Several values for one entry are separate records, joined by “and”; a condition that tells them apart may be missing. Identical values can stand only once. Like-named read-outs stand apart in the source and are kept apart here.
Molecular target: T1, gamma-secretase (Homo sapiens, UniProt P49768)
T1 construct: Fresh human neuroblastoma cells SHSY-5 were purchased from ATCC; host or cells: SH-SY5Y human neuroblastoma cells, untransfected
Assay: gamma-secretase modulating activity in cell cultures of human neuroblastoma SHSY-5 cells, intracellular Aβ x-40 by ELISA
Type: cell-based
Conditions: for experiment 1 / experiment 2 / experiment 3: Aβ ELISA signal, 0 nM about 100; for bestfit2 / bestfit3 / bestfit1: fitted curve; for IC50: read-out: calculated IC50
Description: The gamma-secretase modulating activity of Jiva compounds were determined in Cell Cultures of fresh human neuroblastoma SHSY-5 cells. The enzyme-linked immunosorbent assay (ELISA) is one of the most commonly used, reliable, and sensitive methods for quantitating the A β peptides. The detailed methods for the recovery of both soluble and deposited A β from brain tissue and the subsequent quantitation of the peptides by ELISA are thoroughly described in literature such as Stephen D. Schmidt, et al., “Amyloid, Enzyme-linked immunosorbent assay, ELISA, Extraction, Quantification”, Methods in Molecular Biology, vol. 849, DOI 10.1007/978-1-61779-551-0_34, Springer Science+Business Media, LLC 2012; Zeljko M. Svedruzic, et al., “Modulators of γ-Secretase Activity Can Facilitate the Toxic Side-Effects and Pathogenesis of Alzheimer's Disease”, PLOS ONE, 1 Jan. 2013|Volume 8|Issue 1; Catherine R. Burton et al., “The Amyloid-β Rise and γ-Secretase Inhibitor Potency Depend on the Level of Substrate Expression” Aug. 22, 2008 The Journal of Biological Chemistry 283, 22992-23003.
The well-studied γ-secretase inhibitor, semagacestat (WIKI) was used as a positive control in the above assays.
The following are procedures used for screening gamma-secretase modulating activity of Jiva compounds in cell cultures.
Protocol for Growing SHSY-5 Cells:
Fresh human neuroblastoma cells SHSY-5 were purchased from ATCC in the […]. All SHSY-5 cells were propagated and grown in p75 flasks, following the supplier's instructions. Briefly, SH-SY5Y cells were grown to confluence in Dulbecco's Modified Eagles Medium (DMEM) supplemented with 2 mM L-glutamine, 1× nonessential amino acids, and 0.22 micrometers filtered 10% heat inactivated fetal bovine serum (FBS) in a 5% CO2 humidified incubator at 37° C. Cultures were split twice a week and cells were seeded at 2.5×10^4 cells/cm^2. The cells were detached from the bottles after two phosphate buffer washes that were followed by 5 min treatment with 0.25% trypsine solution.
Protocol for Preparation of Jiva Compounds and the Initial Screening:
Jiva compounds were dissolved under sterile conditions in different volumes of molecular biology grade dimethylsulfoxide (DMSO) so that the final concentration was 200 mM, with the goal to screen in a concentration range from 50 to 1000 μM. Thus, between 1 μL to 20 µL of DMSO solution of each Jiva compound was added to 4 mL of sterile cell media with FBS adjusted to 1%. The cells were incubated with different compounds for 18 h (i.e. overnight). Following the incubation cells were tested for viability and morphology. The first viability criteria was attachment to the surface, the second viability criteria was resistance to trypan blue uptake. Only viable cells were harvested for ELISA screening.
Confluent cells were scraped from p25 cell-culture bottles and collected in pellets by centrifugation for 5 mins at 1000 g. To measure intracellular amyloid β, the centrifugation helps in concentrating Aβ1-40 peptides for measurements. About 40 micro grams of cell can be recovered from 4 mL cell medium in p25 cell culture bottles. The cell pellets were re-suspended in RIPA buffer and incubated on ice for 30 min.
RIPA buffer means 150 mM sodium chloride; 1% NP-40; 0.5% sodium deoxycholate; 0.1% SDS; 50 mM Tris pH 8.0.
Following lysis, the cell debris was separated by centrifugation, 1 h at 40,000×g. The clear supernatant was collected for ELISA measurements that followed immediately after the centrifugation.
ELISA measurements used IBL ELISA kits for Aβ x-40 using manufacturer's protocol and supplied standards. Briefly, for each measurement 100 μL sample was prepared from 12.5 μL lysis buffer and 87.5 μL ASSAYBUF solutions in each well. ASSAYBUF solution were supplied in the kit, and used to incubate cell lysate with anti-amyloid antibody attached to the wells in ELISA plates. The plate covered with plate-lid was incubated with gentle shaking overnight at 4° C. […]

[1] = 100000.0 nM, listed as JIVA002B
[2] = 1000000.0 nM, listed as JIVA002B

CC/C=C\C/C=C\C/C=C\C/C=C\C/C=C\CCCCC(C(=O)O)C1CC1 (racemic) [JIVA 28, EPA Cyclopropyl-acetic acid-fibrate]
experiment 1 (21.4 nM): 101 | experiment 2 (21.4 nM): 103 | experiment 3 (21.4 nM): 104 | bestfit2 (21.4 nM): 100.0 | bestfit3 (21.4 nM): 100.0 | bestfit1 (21.4 nM, listed as JIVA002B): 100.0 and 99.9 | experiment 1 (74.1 nM): 98 | experiment 2 (74.1 nM): 102 | experiment 3 (74.1 nM): 108 | bestfit2 (74.1 nM): 99.9 | bestfit1 (74.1 nM, listed as JIVA002B): 99.8 and 99.7 | bestfit3 (74.1 nM, listed as JIVA002B): 99.9 and 99.8 | experiment 1 (100.0 nM): 102 | experiment 2 (100.0 nM): 99 | experiment 3 (100.0 nM): 97 | bestfit1 (100.0 nM, listed as JIVA002B): 99.8 and 99.6 | bestfit2 (100.0 nM, listed as JIVA002B): 99.9 and 99.6 | bestfit3 (100.0 nM, listed as JIVA002B): 99.9 and 99.5 | experiment 1 (213.8 nM): 101 | experiment 2 (213.8 nM): 95 | experiment 3 (213.8 nM): 100 | bestfit1 (213.8 nM, listed as JIVA002B): 99.5 and 99.1 | bestfit2 (213.8 nM, listed as JIVA002B): 99.7 and 99.6 | bestfit3 (213.8 nM, listed as JIVA002B): 99.7 and 99.5 | experiment 1 (741.3 nM): 97 | experiment 2 (741.3 nM): 100 | experiment 3 (741.3 nM): 94 | bestfit1 (741.3 nM, listed as JIVA002B): 98.5 and 97.0 | bestfit2 (741.3 nM, listed as JIVA002B): 99.1 and 98.6 | bestfit3 (741.3 nM, listed as JIVA002B): 99.0 and 98.3 | experiment 2 (1000.0 nM): 101 | experiment 3 (1000.0 nM): 104 | experiment 1 (1000.0 nM, listed as JIVA002B): 96 and 95 | bestfit1 (1000.0 nM, listed as JIVA002B): 97.8 and 96.0 | bestfit2 (1000.0 nM, listed as JIVA002B): 99.8 and 98.2 | bestfit3 (1000.0 nM, listed as JIVA002B): 98.6 and 97.8 | experiment 1 (2138.0 nM): 90 | experiment 2 (2138.0 nM): 98 | experiment 3 (2138.0 nM): 90 | bestfit2 (2138.0 nM, listed as JIVA002B): 97.5 and 96.2 | bestfit3 (2138.0 nM, listed as JIVA002B): 97.1 and 95.4 | experiment 2 (7413.1 nM): 85 | experiment 1 (7413.1 nM, listed as JIVA002B): 90 and 75 | experiment 3 (7413.1 nM, listed as JIVA002B): 96 and 79 | bestfit1 (7413.1 nM, listed as JIVA002B): 85.6 and 76.4 | bestfit2 (7413.1 nM, listed as JIVA002B): 91.9 and 87.9 | bestfit3 (7413.1 nM, listed as JIVA002B): 90.5 and 85.6 | experiment 2 (10000.0 nM): 85 | experiment 1 (10000.0 nM, listed as JIVA002B): 88 and 71 | bestfit1 (10000.0 nM, listed as JIVA002B): 81.5 and 70.6 | bestfit2 (10000.0 nM, listed as JIVA002B): 89.4 and 84.4 | bestfit3 (10000.0 nM, listed as JIVA002B): 87.7 and 81.5 | experiment 1 (21379.5 nM, listed as JIVA002B): 73 and 58 | experiment 2 (21379.5 nM, listed as JIVA002B): 73 and 62 | experiment 3 (21379.5 nM, listed as JIVA002B): 79 and 64 | bestfit1 (21379.5 nM, listed as JIVA002B): 57.3 and 52.9 | bestfit2 (21379.5 nM, listed as JIVA002B): 79.7 and 71.6 | bestfit3 (21379.5 nM, listed as JIVA002B): 76.9 and 67.3 | experiment 2 (74131.0 nM): 46 | experiment 1 (74131.0 nM, listed as JIVA002B): 28 and 18 | experiment 3 (74131.0 nM, listed as JIVA002B): 57 and 33 | bestfit2 (74131.0 nM, listed as JIVA002B): 53.1 and 42.1 | bestfit3 (74131.0 nM, listed as JIVA002B): 48.9 and 37.2 | experiment 1 [1]: 26 and 13 | experiment 2 [1]: 49 and 33 | experiment 3 [1]: 46 and 27 | bestfit2 [1]: 45.7 and 35.1 | bestfit3 [1]: 41.5 and 30.5 | experiment 1 (1000000.0 nM): 2 | experiment 2 (1000000.0 nM): 8 | experiment 3 (1000000.0 nM): 2 | bestfit1 [2]: 4.2 and 2.3 | bestfit2 [2]: 7.7 and 5.1 | bestfit3 [2]: 6.6 and 4.2 | average signal triplicates (20 microM, cells incubated 18 h, ELISA OD 450 nm): 0.162 | signal nomalised to cells (20 microM, normalised to collected cell mass): 0.034 | sign-bkgr (20 microM, signal minus background): 0.042 | IC50 (first, experiment 1): 44 µM and 24 µM | IC50 (second, experiment 2): 84 µM and 54 µM | IC50 (third, experiment 3): 71 µM and 44 µM
